Reference: patent publication US6825340B2, “Methods and reagents for inactivating ribonucleases” (Ambion, Inc., priority 1998, dated 2004)
“Also recorded” adds a separate entry of the source.

Experiments:
[1] = target: T1, T3 RNA polymerase (Enterobacteria phage T3, UniProt P07659); test: In vitro transcription reaction (MAXIscript kit), UTP[α-32P] incorporation; format: biochemical; settings: 20 mM reducing reagent
T1 construct: purchased Ambion, Inc
Experimental: (§1) FIG. 3. […] Transcriptions were performed with T7, T3 and SP6 RNA polymerase in the presence and absence of 20 mM DTT. For each RNA polymerase reaction, pTRI-Xef DNA was the template and UTP[α^32P] was included to measure the efficiency of transcription. Duplicates were performed for each reaction. TCA precipitations were performed on each transcription reaction to measure the percent of the UTP[α^32P] incorporated into RNA.
(§2) The transcription reactions were based on the MAXIscript™ transcription kit (Ambion, Inc.). The following were assembled with or without 20 mM reducing reagent in a final volume of 18 μl: NTPs (0.5 mM each), 1 μg linearized DNA template, 2 μl 10 × transcription buffer, and 0.2 μl UTP [α-^32P] (800 Ci/mmol). The reaction mixtures were incubated 60° C. for 10 minutes and then 2 μl of the either SP6, T7 or T3 RNA polymerase (10 units/μl) were added to the reactions, incubated 30° C. for 60 minutes and then TCA precipitated to assess the incorporation of the radioactive label.

[2] = target: T2, T7 RNA polymerase (Escherichia phage T7, UniProt P00573); test: as above; format: biochemical; settings: 20 mM reducing reagent
T2 construct: purchased Ambion, Inc
Experimental: as §1, §2

[3] = target: T3, SP6 RNA polymerase (Enterobacteria phage SP6, UniProt P06221); test: as above; format: biochemical; settings: 20 mM reducing reagent
T3 construct: purchased Ambion, Inc
T3 sequence (P06221 1-874): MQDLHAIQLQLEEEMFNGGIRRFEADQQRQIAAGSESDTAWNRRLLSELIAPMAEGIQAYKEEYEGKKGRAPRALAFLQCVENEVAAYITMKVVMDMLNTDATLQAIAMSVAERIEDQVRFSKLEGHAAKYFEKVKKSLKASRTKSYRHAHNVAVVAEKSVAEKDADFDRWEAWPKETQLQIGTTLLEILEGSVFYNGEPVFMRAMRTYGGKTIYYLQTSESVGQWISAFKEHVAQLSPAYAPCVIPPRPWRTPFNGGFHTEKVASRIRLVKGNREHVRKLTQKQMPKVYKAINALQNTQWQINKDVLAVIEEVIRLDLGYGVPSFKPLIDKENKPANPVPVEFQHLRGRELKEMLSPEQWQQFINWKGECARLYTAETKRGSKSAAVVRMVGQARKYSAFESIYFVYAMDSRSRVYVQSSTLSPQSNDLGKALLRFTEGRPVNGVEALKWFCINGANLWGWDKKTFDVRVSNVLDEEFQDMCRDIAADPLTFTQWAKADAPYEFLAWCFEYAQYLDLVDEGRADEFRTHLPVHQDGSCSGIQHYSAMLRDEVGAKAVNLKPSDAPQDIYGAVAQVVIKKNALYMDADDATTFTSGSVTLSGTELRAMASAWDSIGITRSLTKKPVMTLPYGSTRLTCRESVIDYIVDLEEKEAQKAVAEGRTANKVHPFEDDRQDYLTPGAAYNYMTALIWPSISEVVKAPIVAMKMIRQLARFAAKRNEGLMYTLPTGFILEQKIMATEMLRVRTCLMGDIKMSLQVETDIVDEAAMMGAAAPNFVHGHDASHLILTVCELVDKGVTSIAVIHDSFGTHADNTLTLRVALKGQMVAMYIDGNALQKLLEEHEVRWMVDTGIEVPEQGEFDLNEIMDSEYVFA
Experimental: as §1, §2

[4] = test system: RNase mixture (RNase A, RNase 1, RNase T1); test: Isotopic RNase inactivation assay (radioactive RNA probe, acrylamide gel); format: biochemical, human, E. coli and a fungus; settings: 20 mM DTT, 60° C. for 20 minutes
Experimental: FIG. 1. DTT-heat inactivation of different RNase concentrations. The RNase mixture was made to different concentrations in 20 mM DTT: 1 mM sodium citrate (pH 6.4). The RNase samples were incubated at 60° C. for 20 minutes. A radioactive RNA probe was added to the treated RNase samples, incubated at 37° C. for 16 hours, fractionated in a denaturing 5% acrylamide gel and exposed to x-ray film.
The inventors routinely perform assays on RNA designed to assess RNase activity in a sample. Two different assays are typically used for the detection of ribonuclease activity, non-isotopic and isotopic. Each assay generates similar data with regard to the sensitivity of detection. In both assays, the inactivation process is typically performed on a mixture of three different ribonucleases: RNase A, RNase 1, and RNase T1. Each ribonuclease is purified from a different species: […], E. coli and a fungus, respectively. The three RNases are very different from each other in their origin, substrate specificity and protein sequence. In this way, the inactivation process can test three completely different but well characterized ribonucleases. The standard stock RNase mixture employed in the following examples is prepared by combining 1 μl RNase 1 (100 U/μl; Ambion), 1 μl RNase cocktail (RNase A, 0.5 U/μl; RNase T1, 20 U/μl, Ambion) and 98 μl water. […]

T1 sequence (P07659 whole entry): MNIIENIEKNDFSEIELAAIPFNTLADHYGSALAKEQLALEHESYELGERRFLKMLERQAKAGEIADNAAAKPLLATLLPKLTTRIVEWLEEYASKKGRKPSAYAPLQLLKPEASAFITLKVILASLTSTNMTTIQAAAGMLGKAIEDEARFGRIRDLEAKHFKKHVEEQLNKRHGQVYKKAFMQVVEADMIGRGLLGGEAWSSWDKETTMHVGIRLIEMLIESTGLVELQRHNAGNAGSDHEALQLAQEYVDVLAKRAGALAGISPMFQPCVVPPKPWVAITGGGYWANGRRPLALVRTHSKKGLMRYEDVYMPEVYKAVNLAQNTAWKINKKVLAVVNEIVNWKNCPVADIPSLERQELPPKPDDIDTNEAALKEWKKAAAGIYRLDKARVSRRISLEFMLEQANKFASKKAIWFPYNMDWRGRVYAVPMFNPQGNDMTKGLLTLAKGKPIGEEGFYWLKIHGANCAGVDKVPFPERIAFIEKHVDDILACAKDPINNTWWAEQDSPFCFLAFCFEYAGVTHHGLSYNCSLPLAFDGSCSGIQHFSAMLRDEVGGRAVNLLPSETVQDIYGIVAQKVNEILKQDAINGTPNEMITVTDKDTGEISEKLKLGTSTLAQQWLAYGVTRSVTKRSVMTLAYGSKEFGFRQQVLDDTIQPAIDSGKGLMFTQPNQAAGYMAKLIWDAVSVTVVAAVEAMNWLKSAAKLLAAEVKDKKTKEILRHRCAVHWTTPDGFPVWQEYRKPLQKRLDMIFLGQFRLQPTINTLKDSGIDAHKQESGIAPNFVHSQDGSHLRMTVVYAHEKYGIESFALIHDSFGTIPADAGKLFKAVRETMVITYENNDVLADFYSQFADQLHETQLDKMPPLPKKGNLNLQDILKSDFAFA
T2 sequence (P00573 whole entry): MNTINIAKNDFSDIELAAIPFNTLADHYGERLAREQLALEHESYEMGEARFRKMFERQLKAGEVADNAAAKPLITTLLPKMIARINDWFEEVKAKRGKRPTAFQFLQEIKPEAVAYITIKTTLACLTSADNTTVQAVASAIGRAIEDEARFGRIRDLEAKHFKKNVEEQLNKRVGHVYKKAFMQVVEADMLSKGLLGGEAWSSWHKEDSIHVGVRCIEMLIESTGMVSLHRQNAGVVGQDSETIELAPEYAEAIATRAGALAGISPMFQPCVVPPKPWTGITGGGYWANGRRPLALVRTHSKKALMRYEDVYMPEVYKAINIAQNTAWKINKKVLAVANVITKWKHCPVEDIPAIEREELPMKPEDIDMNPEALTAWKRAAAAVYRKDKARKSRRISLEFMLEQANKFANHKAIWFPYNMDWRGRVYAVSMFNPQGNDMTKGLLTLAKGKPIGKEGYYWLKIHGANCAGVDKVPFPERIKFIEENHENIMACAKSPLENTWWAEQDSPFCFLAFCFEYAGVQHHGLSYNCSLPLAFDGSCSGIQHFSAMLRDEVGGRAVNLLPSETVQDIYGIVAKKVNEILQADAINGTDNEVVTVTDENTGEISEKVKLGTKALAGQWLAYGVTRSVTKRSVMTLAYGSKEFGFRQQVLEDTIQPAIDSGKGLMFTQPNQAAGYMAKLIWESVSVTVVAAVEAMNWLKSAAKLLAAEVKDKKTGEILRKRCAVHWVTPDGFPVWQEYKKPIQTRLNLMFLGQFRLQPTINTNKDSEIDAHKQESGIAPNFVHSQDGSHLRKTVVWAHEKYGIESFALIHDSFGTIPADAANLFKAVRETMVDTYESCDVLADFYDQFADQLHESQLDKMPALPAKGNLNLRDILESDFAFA

O[C@H](CS)[C@H](O)CS [DTT, dithiothreitol]
inhibition of T3 RNA polymerase transcription [1]: does not inhibit; also recorded: None of the three polymerases were inhibited
inhibition of T7 RNA polymerase transcription [2]: does not inhibit; also recorded: None of the three polymerases were inhibited
inhibition of SP6 RNA polymerase transcription [3]: does not inhibit; also recorded: None of the three polymerases were inhibited
concentration of RNase mixture completely inactivated ([4]; 1 mM sodium citrate (pH 6.4), isotopic assay): up to 200 ng/ml
RNase inactivation in different buffers and solutions ([4]; RNase mixture 200 ng/ml, 17 solutions, isotopic): inactivated RNase activity in all of buffers and solutions tested
